Measured values published in article PMC9250534, “Synthesis and direct assay of large macrocycle diversities by combinatorial late-stage modification at picomole scale” (Nature Communications, 2022).
Where “and” joins values, the source holds several entries; their conditions need not be identical. Identical values can stand only once. Like-named read-outs stand apart in the source and are kept apart here.

Tests used:
thrombin [1] = biological target: T1, thrombin (Homo sapiens, UniProt P00734); test: Determination of Kis of purified thrombin inhibitors (IC50, Cheng-Prusoff); type: biochemical; conditions: for % thrombin activity: replicates 1-3
T1 construct: consists of two polypeptide chains of 36 (light chain) and 259 amino acid
Protocol: Purified thrombin inhibitors (10 mM in DMSO) were diluted to 80 μM in 125 μL of Tris buffer (100 mM Tris-Cl, 150 mM NaCl, 10 mM MgCl2, 1 mM CaCl2) containing 0.1% w/v BSA, 0.01% v/v Triton-X100 and […]. The macrocycles were diluted two-fold in Tris buffer containing 0.1% w/v BSA, 0.01% v/v Triton-X100 and 1% DMSO in buffer. The thrombin activity was measured in 96-well plates (Greiner, 655101) and the residual activity calculated as described above in the assay used to measure activities of HPLC-separated fractions of screening hits.
Supplementary Figure 7. Thrombin inhibitors M1 to M5. a, Chemical structures and analytical HPLC chromatograms obtained using a 0-100% MeCN/H2O gradient over 15 minutes. b, For all macrocycles, an 18 -point, two-fold serial dilution was performed in 50 µL volumes. Thrombin was added (50 µL, 2 nM final conc.), followed 10 minutes later by fluorogenic substrate Z -Gly-Gly-Arg-AMC (50 µL, 50 µM final conc.). The increase in fluorescence was measured over 30 minutes.
Residual thrombin activity was determined by dividing the slope of fluorescenc e intensity over time for each well by the slope of control wells without macrocycle. Mean values and SDs are indicated for three independent thrombin inhibition measurements.
(1 picture or pasted object on this page, not shown here)

thrombin [2] = biological target: T1, thrombin; test: Thrombin inhibition screen of crude macrocycle reactions (residual thrombin activity, fluorogenic substrate Z-Gly-Gly-Arg-AMC); type: biochemical; conditions: 10 µM macrocycle concentration, macrocycles containing acid 14, crude reaction
Summary of the method: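 Residual activity was measured as the AMC release rate after adding 50 μM Z-Gly-Gly-Arg-AMC. This followed a 10-min room-temperature preincubation of 2 nM thrombin with 10 μM single macrocycles in pH 7.4 Tris buffer (0.6% DMSO). Percent inhibition was taken against the mean slope of DMSO controls.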

MDM2 = MDM2 (Homo sapiens, UniProt Q00987); test: MDM2 binding screen of Libraries 3 and 4: displacement of fluorescent probe F-M8 at 750 nM macrocycle; conditions: Panel b, Library 3: 63 scaffolds combinatorially acylated with 15 carboxylic acids at 30 picomole scale; displacement of fluorescent peptide probe; macrocycle 750 nM
Sequence of MDM2 (Q00987 whole entry): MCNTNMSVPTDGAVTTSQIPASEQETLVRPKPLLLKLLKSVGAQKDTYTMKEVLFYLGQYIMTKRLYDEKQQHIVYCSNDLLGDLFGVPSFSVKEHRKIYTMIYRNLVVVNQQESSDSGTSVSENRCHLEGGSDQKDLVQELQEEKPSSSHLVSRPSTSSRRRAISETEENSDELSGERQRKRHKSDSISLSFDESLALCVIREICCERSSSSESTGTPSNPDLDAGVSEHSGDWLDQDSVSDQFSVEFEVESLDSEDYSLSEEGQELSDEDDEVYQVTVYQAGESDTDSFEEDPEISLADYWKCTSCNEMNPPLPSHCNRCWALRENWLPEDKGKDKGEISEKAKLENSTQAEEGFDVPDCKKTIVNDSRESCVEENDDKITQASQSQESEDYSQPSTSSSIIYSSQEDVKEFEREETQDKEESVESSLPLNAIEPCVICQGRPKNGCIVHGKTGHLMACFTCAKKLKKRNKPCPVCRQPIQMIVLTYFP
Summary of the method: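 Competition with nutlin-3a was run using the fluorescein conjugate. Library members came from scaffolds reacted 6 h at room temperature with carboxylic acids (20 equiv.), HBTU and DABCO in DMSO. Quenching was overnight in Tris-Cl pH 7.4 buffer with 0.01% Tween20.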

[3] = thrombin, average of 3 replicates, read-out: IC50 (nM) Average
[4] = thrombin, replicate 1, Cheng-Prusoff, read-out: Ki (nM) Replicate 1
[5] = thrombin, replicate 1, read-out: IC50 (nM) Replicate 1
[6] = thrombin, replicate 2, Cheng-Prusoff, read-out: Ki (nM) Replicate 2
[7] = thrombin, replicate 2, read-out: IC50 (nM) Replicate 2
[8] = thrombin, replicate 3, Cheng-Prusoff, read-out: Ki (nM) Replicate 3
[9] = thrombin, replicate 3, read-out: IC50 (nM) Replicate 3

## CC(C)[C@H]1NC(=O)CCSSCCNC(=O)[C@H](CNC(=O)c2ccc(Cl)s2)NC(=O)c2cccc(c2)CNC1=O [M1]
Thrombin [1]; Log [Macrocycle] M -8.8
  % thrombin activity: 98.0% and 96.9% and 96.6%
Thrombin [1]; Log [Macrocycle] M -9.1
  % thrombin activity: 99.2% and 98.3% and 98.9%
Thrombin [1]; Log [Macrocycle] M -9.4
  % thrombin activity: 99.9% and 99.1% and 103.5%
Thrombin [1]; Log [Macrocycle] M -9.7
  % thrombin activity: 100.7% and 100.1% and 99.6%
Thrombin [1]; Log[Macrocycle] M -4.6
  % thrombin activity: -0.0543% and 1.1% and -0.4%
Thrombin [1]; Log[Macrocycle] M -4.9
  % thrombin activity: 0.156% and 0.7% and 0.8%
Thrombin [1]; Log[Macrocycle] M -5.2
  % thrombin activity: 0.8% (2×) and 1.8%
Thrombin [1]; Log[Macrocycle] M -5.5
  % thrombin activity: 1.9% (2×) and 2.1%
Thrombin [1]; Log[Macrocycle] M -5.8
  % thrombin activity: 3.9% and 4.1% and 4.6%
Thrombin [1]; Log[Macrocycle] M -6.1
  % thrombin activity: 7.3% and 6.9% and 7.7%
Thrombin [1]; Log[Macrocycle] M -6.4
  % thrombin activity: 13.7% and 13.0% and 13.6%
Thrombin [1]; Log[Macrocycle] M -6.7
  % thrombin activity: 22.7% and 21.8% and 22.6%
Thrombin [1]; Log[Macrocycle] M -7.0
  % thrombin activity: 35.5% and 35.6% and 37.1%
Thrombin [1]; Log[Macrocycle] M -7.3
  % thrombin activity: 54.7% and 53.1% and 53.5%
Thrombin [1]; Log[Macrocycle] M -7.6
  % thrombin activity: 68.7% and 65.3% and 67.8%
Thrombin [1]; Log[Macrocycle] M -7.9
  % thrombin activity: 81.7% and 81.8% and 83.6%
Thrombin [1]; Log[Macrocycle] M -8.2
  % thrombin activity: 91.6% and 89.3% and 88.1%
Thrombin [1]; Log[Macrocycle] M -8.5
  % thrombin activity: 94.7% and 92.6% and 94.4%
Thrombin [1]; [3]
  IC50: 58 nM
Thrombin [1]; [4]
  Ki: 45 nM
Thrombin [1]; [5]
  IC50: 59 nM
Thrombin [1]; [6]
  Ki: 43 nM
Thrombin [1]; [7]
  IC50: 56 nM
Thrombin [1]; [8]
  Ki: 45 nM
Thrombin [1]; [9]
  IC50: 58 nM

## CC(C)C1NC(=O)CCSCSCCNC(=O)C(CNC(=O)c2ccc(Cl)s2)NC(=O)c2cccc(c2)CNC1=O (centres unmarked) [M4]
Thrombin [1]; Log [Macrocycle] M -4.5
  % thrombin activity: 0.233% and 0.231% and 2.7%
Thrombin [1]; Log [Macrocycle] M -4.8
  % thrombin activity: 1.1% and 1.5% and 2.1%
Thrombin [1]; Log [Macrocycle] M -5.1
  % thrombin activity: 2.6% and 3.2% and -2.3%
Thrombin [1]; Log [Macrocycle] M -5.4
  % thrombin activity: 3.6% and 5.7% and 3.8%
Thrombin [1]; Log [Macrocycle] M -5.7
  % thrombin activity: 8.1% and 9.4% and 6.2%
Thrombin [1]; Log [Macrocycle] M -6.0
  % thrombin activity: 12.9% and 16.1% and 11.7%
Thrombin [1]; Log [Macrocycle] M -6.3
  % thrombin activity: 22.1% and 27.3% and 19.3%
Thrombin [1]; Log [Macrocycle] M -6.6
  % thrombin activity: 34.1% and 41.1% and 30.9%
Thrombin [1]; Log [Macrocycle] M -6.9
  % thrombin activity: 55.7% and 58.5% and 45.5%
Thrombin [1]; Log [Macrocycle] M -7.2
  % thrombin activity: 67.0% and 71.8% and 59.8%
Thrombin [1]; Log [Macrocycle] M -7.5
  % thrombin activity: 78.0% and 82.2% and 70.6%
Thrombin [1]; Log [Macrocycle] M -7.8
  % thrombin activity: 96.6% and 99.4% and 81.6%
Thrombin [1]; Log [Macrocycle] M -8.1
  % thrombin activity: 97.9% and 103.9% and 87.1%
Thrombin [1]; Log [Macrocycle] M -8.4
  % thrombin activity: 104.8% and 107.0% and 92.8%
Thrombin [1]; Log [Macrocycle] M -8.7
  % thrombin activity: 103.7% and 107.0% and 93.5%
Thrombin [1]; Log [Macrocycle] M -9.0
  % thrombin activity: 106.1% and 107.4% and 94.0%
Thrombin [1]; Log [Macrocycle] M -9.3
  % thrombin activity: 106.8% and 100.7% and 99.2%
Thrombin [1]; Log [Macrocycle] M -9.6
  % thrombin activity: 107.9% and 105.2% and 99.6%
Thrombin [1]; [3]
  IC50: 108 nM
Thrombin [1]; [5]
  IC50: 119 nM
Thrombin [1]; thrombin, replicate 1, read-out: Ki (nM) Replicate 1
  Ki: 92 nM
Thrombin [1]; [7]
  IC50: 106 nM
Thrombin [1]; thrombin, replicate 2, read-out: Ki (nM) Replicate 2
  Ki: 82 nM
Thrombin [1]; [9]
  IC50: 99 nM
Thrombin [1]; thrombin, replicate 3, read-out: Ki (nM) Replicate 3
  Ki: 76 nM

## CC(C)[C@@H]1NC(=O)CCSSCCNC(=O)[C@H](CNC(=O)c2ccc(Cl)s2)NC(=O)c2cccc(c2)CNC1=O [M3]
Thrombin [1]; Log [Macrocycle] M -8.8
  % thrombin activity: 98.3% and 97.3% and 97.1%
Thrombin [1]; Log [Macrocycle] M -9.1
  % thrombin activity: 98.8% and 98.0% and 98.2%
Thrombin [1]; Log [Macrocycle] M -9.4
  % thrombin activity: 99.9% and 97.2% and 99.1%
Thrombin [1]; Log [Macrocycle] M -9.7
  % thrombin activity: 93.6% and 99.4% (2×)
Thrombin [1]; Log[Macrocycle] M -4.6
  % thrombin activity: -0.0344% and 0.5% and 0.739%
Thrombin [1]; Log[Macrocycle] M -4.9
  % thrombin activity: 0.656% and 1.5% and 1.0%
Thrombin [1]; Log[Macrocycle] M -5.2
  % thrombin activity: 2.2% and 5.0% and 2.4%
Thrombin [1]; Log[Macrocycle] M -5.5
  % thrombin activity: 4.8% and 4.9% and 5.3%
Thrombin [1]; Log[Macrocycle] M -5.8
  % thrombin activity: 9.4% and 9.7% (2×)
Thrombin [1]; Log[Macrocycle] M -6.1
  % thrombin activity: 17.5% and 15.4% and 16.3%
Thrombin [1]; Log[Macrocycle] M -6.4
  % thrombin activity: 29.4% and 28.1% and 27.8%
Thrombin [1]; Log[Macrocycle] M -6.7
  % thrombin activity: 45.2% and 42.3% and 41.8%
Thrombin [1]; Log[Macrocycle] M -7.0
  % thrombin activity: 60.5% and 58.8% and 57.9%
Thrombin [1]; Log[Macrocycle] M -7.3
  % thrombin activity: 75.1% and 75.3% and 74.4%
Thrombin [1]; Log[Macrocycle] M -7.6
  % thrombin activity: 85.8% and 81.9% and 83.6%
Thrombin [1]; Log[Macrocycle] M -7.9
  % thrombin activity: 92.4% and 87.2% and 91.4%
Thrombin [1]; Log[Macrocycle] M -8.2
  % thrombin activity: 97.7% and 93.3% and 94.6%
Thrombin [1]; Log[Macrocycle] M -8.5
  % thrombin activity: 97.5% and 94.4% and 96.1%
Thrombin [1]; [3]
  IC50: 160 nM
Thrombin [1]; [4]
  Ki: 134 nM
Thrombin [1]; [5]
  IC50: 170 nM
Thrombin [1]; [6]
  Ki: 121 nM
Thrombin [1]; [7]
  IC50: 160 nM
Thrombin [1]; [8]
  Ki: 119 nM
Thrombin [1]; [9]
  IC50: 150 nM

## NC(=O)c1ccc(Cl)s1 [5-chlorothiophene-2-carboxamide, reference compound]
Thrombin [1]; read-out: Ki thrombin
  Ki: 380000 nM

## O=C1CCSSCCNC(=O)C(CNC(=O)c2ccc(Cl)s2)NC(=O)c2cccc(c2)CNC(=O)C(Cc2ccccc2)N1 (centres unmarked) [M2]
Thrombin [2]; original screen
  % thrombin activity, Original screen: 6.9%
Thrombin [2]; replicate reaction and screen
  % thrombin activity, Repeat screen: 6.5%
Thrombin [1]; Log [Macrocycle] M -8.8
  % thrombin activity: 99.5% and 97.4% and 98.4%
Thrombin [1]; Log [Macrocycle] M -9.1
  % thrombin activity: 100.1% (2×) and 99.4%
Thrombin [1]; Log [Macrocycle] M -9.4
  % thrombin activity: 100.7% and 100.1% and 99.7%
Thrombin [1]; Log [Macrocycle] M -9.7
  % thrombin activity: 100.6% and 99.6% and 99.8%
Thrombin [1]; Log[Macrocycle] M -4.6
  % thrombin activity: 3.5% and 3.8% and 4.4%
Thrombin [1]; Log[Macrocycle] M -4.9
  % thrombin activity: 4.9% (2×) and 5.4%
Thrombin [1]; Log[Macrocycle] M -5.2
  % thrombin activity: 6.7% and 6.5% and 7.1%
Thrombin [1]; Log[Macrocycle] M -5.5
  % thrombin activity: 9.9% and 8.4% and 9.6%
Thrombin [1]; Log[Macrocycle] M -5.8
  % thrombin activity: 16.3% and 13.3% and 13.6%
Thrombin [1]; Log[Macrocycle] M -6.1
  % thrombin activity: 26.3% and 21.4% and 21.2%
Thrombin [1]; Log[Macrocycle] M -6.4
  % thrombin activity: 42.5% and 32.8% and 34.8%
Thrombin [1]; Log[Macrocycle] M -6.7
  % thrombin activity: 58.0% and 47.2% and 49.8%
Thrombin [1]; Log[Macrocycle] M -7.0
  % thrombin activity: 71.8% and 64.0% and 65.5%
Thrombin [1]; Log[Macrocycle] M -7.3
  % thrombin activity: 83.6% and 77.5% and 79.8%
Thrombin [1]; Log[Macrocycle] M -7.6
  % thrombin activity: 92.7% and 85.4% and 86.8%
Thrombin [1]; Log[Macrocycle] M -7.9
  % thrombin activity: 95.0% and 92.0% and 93.5%
Thrombin [1]; Log[Macrocycle] M -8.2
  % thrombin activity: 99.2% and 94.0% and 94.1%
Thrombin [1]; Log[Macrocycle] M -8.5
  % thrombin activity: 98.9% and 96.9% and 97.6%
Thrombin [1]; [3]
  IC50: 214 nM
Thrombin [1]; [4]
  Ki: 210 nM
Thrombin [1]; [5]
  IC50: 270 nM
Thrombin [1]; [6]
  Ki: 138 nM
Thrombin [1]; [7]
  IC50: 179 nM
Thrombin [1]; [8]
  Ki: 149 nM
Thrombin [1]; [9]
  IC50: 193 nM

## O=C1CCSSCCNC(=O)[C@H](Cc2c[nH]c3cc(Cl)ccc23)NC(=O)[C@H](CNC(=O)c2ccc3ccccc3c2)NC(=O)C2(CC2)CN1 [X-Amcp-Dap-Cl-Trp + Acid 107]
MDM2
  fraction of fluorescent probe displaced: 0.00455
